Where two headings read alike, the source gives them in different places.
Key:
prolactin incretion = assay: inhibiting action on prolactin incretion after a single oral dose; format: in vivo; details: single oral dose of 100 mcg/kg b.w., female rats, time after treatment
Method: At a single oral dose of 100 micrograms per kg body weight (100 mcg/kg b.w.) in female rats, the inhibiting action on the prolactin incretion remains remarkably high more than 72 hours after treatment.

rats = details: oral route, cited from earlier work
[1] = tested on: adult female rats (Sprague Dawley); assay: pup weight and starvation during lactation of treated mother rats; format: in vivo
Method: 15 adult female rats (Sprague Dawley) at their second delivery were randomly divided into 3 groups of 5 animals each. One group served as control, the other two groups were treated with different dosages of cabergoline: animals of the former group received it at the dose of 25 mcg/kg b.w./day; animals of the latter one received it at the dose of 100 mcg/kg b.w./day, starting from the day following the delivery.
Cabergoline was administered with a pellet of standard feed for breeding rats (Altromin MT@ of the firm Rieper, Bolzano). After complete consumption of the medicated pellet, food and water were made available "ad libitum".
At the dose of 100 mcg/kg b.w./day 100% of pups starved already within the first week of lactation (see Table 1).

mice = details: oral route, cited from earlier work
young female rats = assay: onset of sexual maturity in young female rats at impuberal stage; format: in vivo; details: 25 mcg/kg body weight/day per os
adult female rats = assay: fertility of adult female rats treated before mating; format: in vivo; details: 25 mcg/kg b.w./day per os for 10 days before mating
pregnant rats = assay: gestation of treated pregnant rats; format: in vivo; details: 25 mcg/kg b.w./day per os, control rats had normal delivery

## C=CCN1C[C@H](C(=O)N(CCCN(C)C)C(=O)NCC)C[C@@H]2c3cccc4[nH]cc(c34)C[C@H]21 [cabergoline, 1-ethyl-3-(3'-dimethylaminopropyl)-3-(6'-allylergoline-8'β-carbonyl)-urea]
Prolactin incretion
  time for which the inhibiting action on the prolactin incretion remains remarkably high: more than 72 hours
rats; female rats (second value of 'respectively')
  LD50: 350 mg/kg b.w.
rats; male rats (first value of 'respectively')
  LD50: 400 mg/kg b.w.
[1]; 25 mcg/kg b.w./day to the mother, 7th day of lactation, mean ± SD
  Pups mean weight (in grams) at lactation days 7th: 7.9 ±1.6 grams
[1]; 25 mcg/kg b.w./day to the mother, 14th day of lactation, mean ± SD
  Pups mean weight (in grams) at lactation days 14th: 10.5 ±0.5 grams
[1]; 25 mcg/kg b.w./day to the mother, 14th day of lactation, of 63 pups
  dead pups: 40
[1]; 25 mcg/kg b.w./day to the mother, 21st day of lactation, mean ± SD
  Pups mean weight (in grams) at lactation days 21st: 14.7 ±0.7 grams
[1]; 25 mcg/kg b.w./day to the mother, at the 7th, 14th and 21st day of lactation
  body weight increase of the pups: remarkably reduced
[1]; 25 mcg/kg b.w./day to the mother, within the second week of lactation
  pups starved: about 60%
[1]; 100 mcg/kg b.w./day to the mother, 7th day of lactation, of 65 pups
  dead pups: - (65 dead)
[1]; 100 mcg/kg b.w./day to the mother, within the first week of lactation
  pups starved: 100%
mice; female mice
  LD50 (Lethal Dose 50): 200 mg/kg b.w.
mice; male mice
  LD50 (Lethal Dose 50): 350 mg/kg b.w.
Young female rats
  onset of the sexual maturity: remarkably delayed
Adult female rats
  fertility: completely inhibited
Pregnant rats
  gestation: interrupted their gestation after about ten days

— patent EP0470325A1, “Composition and method to keep under control the reproduction rate of vertebrate animals by means of a composition containing peripheral dopamine agonists” (priority 1990, dated 1992)
